Laboratory results taken from patent US8318186B2, “Use of at least a fatty ester for preparing a composition designed to inhibit 5-α-reductase activity, in pharmacology, in particular dermatology, in cosmetics and as food additive” (Laboratoires Expanscience, priority 2000, dated 2012).
Values joined by “and” are separate entries in the source; they are usually repeats but may differ in a detail not shown here. Identical values can stand only once. Marks after values point to notes of the source that are not given here.

Tested on: 5α-reductase
Test: Fatty acid esters on 5α-reductase activity, conversion of testosterone to 5α-dihydrotestosterone in normal human dermal fibroblast cultures (Example 4)
Type: cell-based
Design: key to group by 5α-reductase inhibitory activity: group A with the highest inhibitory activity; group B with an intermediate inhibitory activity
Conditions: for inhibition of the 5α-reductase activity: Example 4, p<0.05; for 5α-DHT formed per culture well, mean / 5α-DHT formed per culture well, single well: after 24 of incubation, DMSO 0.1% (v/v); for 5α-DHT formed per culture well, single well: single replicate
Procedure: The fibroblast culture medium (FCM) consisted of MEM/M199 (3:1, v/v) supplemented with penicillin (50 IU/ml), streptomycin (50 μg/ml), sodium bicarbonate (0.2%, w/v) and FCS (10%, v/v).
The assay system consisted of normal human dermal fibroblasts cultured as a monolayer. The fibroblasts were isolated from a residue from abdominal plastic surgery performed on a person (subject BIOPREDIC No. I0013). The cells were used at the fifth passage; they were cultured until the monolayers were confluent in FCM medium at 37° C. in a humid atmosphere containing 5% CO2.
The fibroblast incubation medium (FIM) consisted of FCM supplemented with tritiated testosterone (1.6×10^−7 M, that is 6.32 μCi/ml) and nonradiolabeled testosterone (3.84×10^−6 M)
The test products and finasteride were taken up in DMSO before being diluted in the incubation medium. […]
The fibroblast cultures were preincubated in the presence of the test products or of the reference product for 2 hours before adding the substrate, testosterone. For this step, the test products and the reference product were prepared in the FCM medium.
After preincubation, the fibroblast cultures were incubated in the presence of the test products or of the reference product prepared in the FIM medium for 22 hours at 37° C. in a humid atmosphere containing 5% CO2. Control cultures were incubated in the FIM medium in the absence of test products and of reference product. […]
Each experimental condition was tested in triplicate.
After the incubation period, the cells were subjected to the action of ultrasound in the FIM medium. The cellular lysates thus obtained were extracted with dichloromethane. After evaporation, the dry residues were taken up in methanol and were deposited on 60F254 silica plates (MERCK, reference 5554).
The migration solvent was a mixture of dichloromethane and ether (7:3, v/v) At the end of the migration, the silica plates were read using a BERTHOLD radioactivity scanner.
The metabolizing of testosterone to 5α-dihydro-testosterone under the various experimental conditions was calculated: the results (areas of the 5α-dihydrotestosterone peaks counted by the BERTHOLD scanner) were expressed in pmol of 5α-dihydro-testosterone formed per culture well. They were also expressed as a percentage of the 5α-reductase activity present in the “DMSO control” group.
The groups of data (control group and treated groups) were treated by a one-way analysis of variance (ANOVA 1, p<0.05), followed by a DUNNETT's test (p<0.05). The effect of the test products and of the reference product was compared with the “DMSO control” group. The effects of the test products were compared to each other by a two-way analysis of variance (ANOVA 2, p<0.05, factor 1=concentration and factor 2=treatment).
The same materials and methods are used as in example 3 above.
It was proposed to evaluate the effect of fatty acid esters on the 5α-reductase activity. An in vitro model of normal human dermal fibroblast cultures was selected. The products tested were chosen from the group of fatty acid esters varying in the length and the functionality of the fatty chain, and the nature of the alkoxy group. These esters are the following: methyl oleate, methyl linoleate, methyl stearate, methyl laurate, methyl undecylenate, butyl oleate, oleyl oleate and methyl ricinoleate.

## CCCCCCCC/C=C\CCCCCCCC(=O)OC [Methyl oleate, methyl oleate]
1 μg/ml
  5α-reductase activity as percentage of the “DMSO 0.1% (v/v)” group: 71 percentage of the “DMSO 0.1% (v/v)” group
  inhibition of the 5α-reductase activity: 29%
  5α-DHT formed per culture well, mean: 8.12* +/− pmol of 5α-DHT formed/culture well
  5α-DHT formed per culture well, single well: 8.24 pmol of 5α-DHT formed/culture well and 8.28 pmol of 5α-DHT formed/culture well and 7.84 pmol of 5α-DHT formed/culture well
10 μg/ml
  5α-reductase activity as percentage of the “DMSO 0.1% (v/v)” group: 58 percentage of the “DMSO 0.1% (v/v)” group
  inhibition of the 5α-reductase activity: 42%
  5α-DHT formed per culture well, mean: 6.61* +/− pmol of 5α-DHT formed/culture well
  5α-DHT formed per culture well, single well: 6.28 pmol of 5α-DHT formed/culture well and 6.44 pmol of 5α-DHT formed/culture well and 7.12 pmol of 5α-DHT formed/culture well
100 μg/ml
  5α-reductase activity as percentage of the “DMSO 0.1% (v/v)” group: 64 percentage of the “DMSO 0.1% (v/v)” group
  inhibition of the 5α-reductase activity: 26%
  5α-DHT formed per culture well, mean: 7.24* +/− pmol of 5α-DHT formed/culture well
  5α-DHT formed per culture well, single well: 7.52 pmol of 5α-DHT formed/culture well and 7.00 pmol of 5α-DHT formed/culture well and 7.20 pmol of 5α-DHT formed/culture well
Tested at 1, 10 and 100 μg/ml
  group by 5α-reductase inhibitory activity: A
